# Measurements taken from patent publication US9079866B2, “Flap modulators” (JANSSEN PHARMACEUTICA NV, priority 2013, dated 2015).
# Structures can show the parent of a compound that is named as a salt. Where two headings read alike, the source gives them in different places.
# Columns and labels:
# [1] = system: leukotriene pathway in human whole blood (LTB4 levels); experiment: Human whole blood assay (A23187-stimulated LTB4); format: cell-based; details: Homo sapiens, human whole blood diluted 1:1 in RPMI, A23187-stimulated LTB4; read-out: LTB4 IC50 1:1
# How it was run: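 Blood (heparin) diluted 1:1 RPMI; compound pre-incubation 15 min, 37° Celsius; A23187 7 μg/mL, 30 min, 37° Celsius; plasma LTB4 by commercial kit. IC50 via 4-parameter equation.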
# human FLAP = human FLAP (Homo sapiens (Human), UniProt P20292); experiment: FLAP binding assay (HTRF format)
# Sequence of human FLAP (P20292 whole entry): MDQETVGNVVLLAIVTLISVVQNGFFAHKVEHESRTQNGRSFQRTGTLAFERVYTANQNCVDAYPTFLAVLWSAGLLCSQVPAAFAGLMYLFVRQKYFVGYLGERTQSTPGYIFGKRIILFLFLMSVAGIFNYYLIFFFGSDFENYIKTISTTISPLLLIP
# How it was run: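 Samples were run in duplicate on each of two plates and the plate results averaged. Read-out is the HTRF signal ratio.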
# [2] = read-out: FLAP Binding wild type HTRF Ki
# [3] = human FLAP wild type, HTRF format, average of two plates, duplicates
SMILES,IC50 [1],Ki (human FLAP; [3]),Ki (human FLAP; [2])
"CC(C)(CO)NS(=O)(=O)c1ccccc1-c1ccc(-c2cnc(N)nc2)c(F)c1 [Example 280, 4′-(2-Aminopyrimidin-5-yl)-3′-fluoro-N-(2-hydroxy-1,1-dimethylethyl)biphenyl-2-sulfonamide trifluoroacetic acid salt]",0.087 µM,,0.003 µM
"Nc1ncc(-c2ccc(-c3ccccc3S(=O)(=O)N3CCN(CCO)CC3)cc2F)cn1 [Example 282, 2-(4-{[4′-(2-Aminopyrimidin-5-yl)-3′-fluorobiphenyl-2-yl]sulfonyl}piperazin-1-yl)ethanol trifluoroacetic acid salt]",0.28 µM,,0.75 µM
"Nc1ncc(-c2ccc(-c3ccccc3S(=O)(=O)NC3CC3)cc2F)cn1 [Example 284, 4′-(2-Aminopyrimidin-5-yl)-N-cyclopropyl-3′-fluorobiphenyl-2-sulfonamide trifluoroacetic acid salt]",1.04 µM,0.042 µM,
"Nc1ncc(-c2ccc(-c3ccccc3S(=O)(=O)Nc3ccccc3)cc2F)cn1 [Example 285, 4′-(2-Aminopyrimidin-5-yl)-3′-fluoro-N-phenylbiphenyl-2-sulfonamide trifluoroacetic acid salt]",0.111 µM,0.003 µM,
"C[C@@H](CO)NS(=O)(=O)c1ccccc1-c1ccc(-c2cnc(N)nc2)c(F)c1 [Example 286, 4′-(2-Aminopyrimidin-5-yl)-3′-fluoro-N-[(1S)-2-hydroxy-1-methylethyl]biphenyl-2-sulfonamide trifluoroacetic acid salt]",0.206 µM,0.142 µM,
"CNS(=O)(=O)c1ccccc1-c1ccc(-c2cnc(N)nc2)c(F)c1 [Example 288, 4′-(2-Aminopyrimidin-5-yl)-3′-fluoro-N-methylbiphenyl-2-sulfonamide trifluoroacetic acid salt]",0.42 µM,0.103 µM,
"Nc1ncc(-c2ccc(-c3ccccc3S(=O)(=O)N[C@H](c3ccccc3)C(F)(F)F)cc2F)cn1 [Example 291, 4′-(2-Aminopyrimidin-5-yl)-3′-fluoro-N-[(1R)-2,2,2-trifluoro-1-phenylethyl]biphenyl-2-sulfonamide trifluoroacetic acid salt]",0.421 µM,,0.007 µM
"Nc1ncc(-c2ccc(-c3ccccc3S(=O)(=O)N[C@@H](c3ccccc3)C(F)(F)F)cc2F)cn1 [Example 292, 4′-(2-Aminopyrimidin-5-yl)-3′-fluoro-N-[(1S)-2,2,2-trifluoro-1-phenylethyl]biphenyl-2-sulfonamide trifluoroacetic acid salt]",1.03 µM,,0.012 µM
"CC(C)CNS(=O)(=O)c1ccccc1-c1ccc(-c2cnc(N)nc2)c(F)c1 [Example 294, 4′-(2-Aminopyrimidin-5-yl)-3′-fluoro-N-(2-methylpropyl)biphenyl-2-sulfonamide trifluoroacetic acid salt]",0.248 µM,0.002 µM,
"CCNS(=O)(=O)c1ccccc1-c1ccc(-c2cnc(N)nc2)c(F)c1 [Example 295, 4′-(2-Aminopyrimidin-5-yl)-N-ethyl-3′-fluorobiphenyl-2-sulfonamide trifluoroacetic acid salt]",0.11 µM,0.025 µM,
"CC(C)(NS(=O)(=O)c1ccccc1-c1ccc(-c2cnc(N)nc2)c(F)c1)C(F)(F)F [Example 296, 4′-(2-Aminopyrimidin-5-yl)-3′-fluoro-N-(2,2,2-trifluoro-1,1-dimethylethyl)biphenyl-2-sulfonamide trifluoroacetic acid salt]",0.066 µM,0.005 µM,
"C[C@H](NS(=O)(=O)c1ccccc1-c1ccc(-c2cnc(N)nc2)c(F)c1)C(F)(F)F [Example 297, 4′-(2-Aminopyrimidin-5-yl)-3′-fluoro-N-[(1S)-2,2,2-trifluoro-1-methylethyl]biphenyl-2-sulfonamide trifluoroacetic acid salt]",0.045 µM,,0.005 µM
"CCN(CC)S(=O)(=O)c1ccccc1-c1ccc(-c2cnc(N)nc2)c(F)c1 [Example 300, 4′-(2-Aminopyrimidin-5-yl)-N,N-diethyl-3′-fluorobiphenyl-2-sulfonamide trifluoroacetic acid salt]",0.12 µM,0.013 µM,
"Nc1ncc(-c2ccc(-c3ccccc3S(=O)(=O)N3CCCCC3)cc2F)cn1 [Example 301, 5-[3-Fluoro-2′-(piperidin-1-ylsulfonyl)biphenyl-4-yl]pyrimidin-2-amine trifluoroacetic acid salt]",0.204 µM,0.013 µM,
"CC(C)(C)NS(=O)(=O)c1ccccc1-c1ccc(-c2cnc(N)nc2)c(F)c1 [Example 305, 4′-(2-Aminopyrimidin-5-yl)-N-(tert-butyl)-3′-fluoro-[1,1′-biphenyl]-2-sulfonamide trifluoroacetic acid salt]",0.078 µM,0.002 µM,
"Nc1ncc(-c2ccc(-c3ccccc3S(=O)(=O)N3CC4(COC4)C3)cc2F)cn1 [Example 312, 5-(2′-(2-Oxa-6-azaspiro[3.3]heptan-6-ylsulfonyl)-3-fluoro-[1,1′-biphenyl]-4-yl)pyrimidin-2-amine]",0.376 µM,0.262 µM,
"Nc1ncc(-c2ccc(-c3ccccc3S(=O)(=O)N3CC(O)(C(F)(F)F)C3)cc2F)cn1 [Example 315, 1-((4′-(2-Aminopyrimidin-5-yl)-3′-fluoro-[1,1′-biphenyl]-2-yl)sulfonyl)-3-(trifluoromethyl)azetidin-3-ol]",0.027 µM,,0.001 µM
"Nc1ncc(-c2ccc(-c3ccccc3S(=O)(=O)CCCn3c(=O)[nH]c4ccccc43)cc2F)cn1 [Example 318, 1-(3-((4′-(2-Aminopyrimidin-5-yl)-3′-fluoro-[1,1′-biphenyl]-2-yl)sulfonyl)propyl)-1H-benzo[d]imidazol-2(3H)-one]",2 µM,0.689 µM,
"Nc1ncc(-c2ccc(-c3ccccc3S(=O)(=O)CCCS(=O)(=O)C3CCCCC3)cc2F)cn1 [Example 319, 5-(2′-{[3-(Cyclohexylsulfonyl)propyl]sulfonyl}-3-fluorobiphenyl-4-yl)pyrimidin-2-amine]",3.26 µM,0.204 µM,
"Cn1c(S(=O)(=O)c2ccccc2-c2ccc(-c3cnc(N)nc3)c(F)c2)nc2ccccc21 [Example 320, 5-{3-Fluoro-2′-[(1-methyl-1H-benzimidazol-2-yl)sulfonyl]biphenyl-4-yl}pyrimidin-2-amine]",1.08 µM,0.129 µM,
"Nc1ncc(-c2ccc(-c3ccc(C(F)(F)F)cc3S(N)(=O)=O)cc2F)cn1 [Example 322, 4′-(2-Aminopyrimidin-5-yl)-3′-fluoro-4-(trifluoromethyl)biphenyl-2-sulfonamide]",0.138 µM,0.032 µM,
"CS(=O)(=O)c1cc(C(F)(F)F)ccc1-c1ccc(-c2cnc(N)nc2)c(F)c1 [Example 323, 5-[3-Fluoro-2′-(methylsulfonyl)-4′-(trifluoromethyl)biphenyl-4-yl]pyrimidin-2-amine]",6.64 µM,0.77 µM,

# Now from value to molecule, other results behind:
IC50 [1],Ki (human FLAP; [3]),SMILES,Ki (human FLAP; [2])
0.119 µM,0.009 µM,"Nc1ncc(-c2ccc(-c3ccccc3S(=O)(=O)NCC3CC3)cc2F)cn1 [Example 283, 4′-(2-Aminopyrimidin-5-yl)-N-(cyclopropylmethyl)-3′-fluorobiphenyl-2-sulfonamide trifluoroacetic acid]",
0.074 µM,0.009 µM,"Cc1cccc(-c2ccc(-c3cnc(N)nc3)c(F)c2)c1S(=O)(=O)NC(C)(C)C [Example 287, 4′-(2-Aminopyrimidin-5-yl)-N-tert-butyl-3′-fluoro-3-methylbiphenyl-2-sulfonamide trifluoroacetic acid salt]",
0.036 µM,0.022 µM,"C[C@H](CO)NS(=O)(=O)c1ccccc1-c1ccc(-c2cnc(N)nc2)c(F)c1 [Example 289, 4′-(2-Aminopyrimidin-5-yl)-3′-fluoro-N-[(1R)-2-hydroxy-1-methylethyl]biphenyl-2-sulfonamide]",
0.416 µM,0.004 µM,"C[C@H](NS(=O)(=O)c1ccccc1-c1ccc(-c2cnc(N)nc2)c(F)c1)C(=O)OC(C)(C)C [Example 307, tert-Butyl N-{[4′-(2-aminopyrimidin-5-yl)-3′-fluorobiphenyl-2-yl]sulfonyl}-L-alaninate]",
1.79 µM,0.214 µM,"Nc1ncc(-c2ccc(-c3ccccc3NS(=O)(=O)N3CCCC3)cc2F)cn1 [Example 309, N-[4′-(2-Aminopyrimidin-5-yl)-3′-fluorobiphenyl-2-yl]pyrrolidine-1-sulfonamide]",
0.574 µM,0.397 µM,"Nc1ncc(-c2ccc(-c3ccccc3S(=O)(=O)N3CC4(C3)CS(=O)(=O)C4)cc2F)cn1 [Example 313, 6-((4′-(2-Aminopyrimidin-5-yl)-3′-fluoro-[1,1′-biphenyl]-2-yl)sulfonyl)-2-thia-6-azaspiro[3.3]heptane 2,2-dioxide]",
> 10 µM,0.335 µM,"Nc1ncc(-c2ccc(-c3ccccc3S(=O)(=O)Cc3nc4ccccc4c(=O)[nH]3)cc2F)cn1 [Example 317, 2-(((4′-(2-Aminopyrimidin-5-yl)-3′-fluoro-[1,1′-biphenyl]-2-yl)sulfonyl)methyl)quinazolin-4(3H)-one]",
0.101 µM,0.019 µM,"Nc1ncc(-c2ccc(-c3ccc(C(F)(F)F)cc3S(=O)(=O)N3CCNC(=O)C3)cc2F)cn1 [Example 324, 4-{[4′-(2-Aminopyrimidin-5-yl)-3′-fluoro-4-(trifluoromethyl)biphenyl-2-yl]sulfonyl}piperazin-2-one]",
0.091 µM,0.004 µM,"CNS(=O)(=O)c1cc(C(F)(F)F)ccc1-c1ccc(-c2cnc(N)nc2)c(F)c1 [Example 325, 4′-(2-Aminopyrimidin-5-yl)-3′-fluoro-N-methyl-4-(trifluoromethyl)biphenyl-2-sulfonamide]",
